Activity calls are given as the source filed them. No cut-off for these calls is given here.
Columns and labels:
Format in all cases: functional, tissue-based
Myometrium [1] = test: Induction of contraction in beta-estradiol stimulated rat myometrium
Myometrium [2] = test: Induction of contraction per minute in beta-estradiol stimulated rat myometrium at 0.6 uM
Myometrium [3] = test: Induction of contraction per minute in beta-estradiol stimulated rat myometrium at 1 nM

Row | EC50 (Myometrium [1]) [nM] | SMILES | Activity (Myometrium [2]) | Activity (Myometrium [3])
1 | 400 | CC[C@H](C)[C@@H]1NC(=O)[C@H](Cc2ccc(O)cc2)NC(=O)[C@@H](N)CSSC[C@@H](C(=O)N2CCC[C@H]2C(=O)N[C@@H](CC(C)C)C(=O)NCC(=O)NC[C@H]2O[C@@H]3O[C@H]4[C@H](O)[C@@H](O)[C@@H](O[C@H]5[C@H](O)[C@@H](O)[C@@H](O[C@H]6[C@H](O)[C@@H](O)[C@@H](O[C@H]7[C@H](O)[C@@H](O)[C@@H](O[C@H]8[C@H](O)[C@@H](O)[C@@H](O[C@H]9[C@H](O)[C@@H](O)[C@@H](O[C@H]2[C@H](O)[C@H]3O)O[C@@H]9CO)O[C@@H]8CO)O[C@@H]7CO)O[C@@H]6CO)O[C@@H]5CO)O[C@@H]4CO)NC(=O)[C@H](CC(N)=O)NC(=O)[C@H](CCC(N)=O)NC1=O |  | 
2 |  | CC[C@H](C)[C@@H]1NC(=O)[C@H](Cc2ccc(O)cc2)NC(=O)[C@H](N)CSSC[C@@H](C(=O)N2CCC[C@H]2C(=O)N[C@@H](CC(C)C)C(=O)NCC(=O)NC[C@H]2O[C@@H]3O[C@H]4[C@H](O)[C@@H](O)[C@@H](O[C@H]5[C@H](O)[C@@H](O)[C@@H](O[C@H]6[C@H](O)[C@@H](O)[C@@H](O[C@H]7[C@H](O)[C@@H](O)[C@@H](O[C@H]8[C@H](O)[C@@H](O)[C@@H](O[C@H]9[C@H](O)[C@@H](O)[C@@H](O[C@H]2[C@H](O)[C@H]3O)O[C@@H]9CO)O[C@@H]8CO)O[C@@H]7CO)O[C@@H]6CO)O[C@@H]5CO)O[C@@H]4CO)NC(=O)[C@H](CC(N)=O)NC(=O)[C@H](CCC(N)=O)NC1=O | Active | 
3 | 1.7 | CC[C@H](C)[C@@H]1NC(=O)[C@H](Cc2ccc(O)cc2)NC(=O)[C@@H](N)CSSC[C@@H](C(=O)N2CCC[C@H]2C(=O)N[C@@H](CC(C)C)C(=O)NCC(N)=O)NC(=O)[C@H](CC(N)=O)NC(=O)[C@H](CCC(N)=O)NC1=O [OXYTOCIN] |  | Active

Reference: ChEMBL document CHEMBL1141533, “Synthesis and pharmacological evaluation of a new targeted drug carrier system: beta-cyclodextrin coupled to oxytocin” (Bioorg Med Chem Lett, 2008)
